The record followed here is publication PMC6685951, “Migration of Bacteriocins Across Gastrointestinal Epithelial and Vascular Endothelial Cells, as Determined Using In Vitro Simulations” (Scientific Reports, 2019).

The subject of one data set is Caco-2 cells. As to the kind of experiment: Neutral red viability assay, Caco-2. Particulars: 24 h, 37 °C. The format is cell-based, human. As for the experimental part:
(§1) For viability and cytotoxicity studies, cells were seeded in 96-well flat-bottom culture plates (1 × 10^4 cells/well). To determine migration of nisin A, plantaricin 423 and bacST4SA across the gastrointestinal epithelial and vascular endothelial barriers, HUVEC and Caco-2 cells were grown on an 8 µm pore size tissue culture insert, as shown in Fig. 1. All cell culture experiments were done in triplicate and have been repeated more than three times.
(§2) Cells were treated with different concentrations of the peptides as described for the XTT assay. Sterile ultrapure water was used as control. After incubation at 37 °C for 24 h, neutral red solution was added to the cells (10% of the culture volume). After 4 h of incubation at 37 °C, the medium was removed by aspiration and the cells were rinsed with neutral red fixative. The fixative was removed, the dye solubilized by adding […] and the cells were gently stirred for 10 min on a gyratory shaker. Absorbance readings were recorded at 540 nm and 690 nm, respectively, using a microtiter plate reader. The percentage viability was calculated as the absorbance of treated cells divided by the absorbance of untreated cells (AT/AC × 100).

In a further data set the test system is L. monocytogenes EGDe. The data set is classed as cell-based, Listeria monocytogenes. To be noted: microtiter plate, Listeria enrichment broth, 37 °C, OD600; lowest concentration inhibiting growth after 18 h. How it is done:
The BCA assay was used according to the manufactures instructions to determine the concentration of the peptides. The MIC of the peptides was determined using a microtiter plate. Briefly, L. monocytogenes EGDe was inoculated into Listeria enrichment broth (LEB) and incubated overnight at 37 °C. The culture was inoculated into fresh LEB and incubated until an OD600 of 0.1 was reached. A series of peptide concentrations was prepared and 50 µL of each added per well, followed by the addition of 150 µL culture. The controls were ddH2O containing 0.1% (v/v) TFA with 150 µL culture or media. Microtiter plates were incubated at 37 °C and OD600 readings were taken at T0, T5 and T18 (hours). The MIC was determined as the lowest peptide concentration required to inhibit the growth of L. monocytogenes EGDe after 18 h.

The next data set concerns Caco-2 cell monolayer. Nature of the data set: Migration across Caco-2 monolayer on transmigration inserts. Particulars: 3 h. The data set is classed as in vitro ADME, human. How it is done: as §1
(§3) HUVECs and Caco-2 cells were seeded onto transmigration inserts (Fig. 1) at a cell density of 1 × 10^5 cells/insert (200 µL). Inserts were carefully placed in a 24-well tissue culture plate containing 700 µL cell growth media. […] The integrity of the monolayers was monitored by ensuring trans-epithelial electrical resistance (TEER) readings remained above 300 Ω throughout the experiment (Millicell-ERS volt-ohm meter, Merck)[51],[52],[62]. […] Transmigration inserts containing no monolayer, was used to determine the total fluorescence. Samples were incubated for 3 h while absorbance was measured at 490 nm every 30 min using a microplate reader. Before each reading, inserts were removed and placed into new microplates containing fresh media. […]
(§4) The percentage of peptide that attached to, or entered the cells was quantified by subtracting the sum of migrated peptide (eq. 4) and retained peptide (eq. 5) from the total fluorescence. […]

The test system of a further data set is HUVEC monolayer. Nature of the data set: Migration across HUVEC monolayer on transmigration inserts. The format is in vitro ADME, human. Particulars: 3 h. As for the experimental part: as §1, §3, §4
The subject of data set [1] is HUVEC. Nature of the data set: Neutral red viability assay, HUVEC. The data set is classed as cell-based, human. To be noted: 24 h, 37 °C. How it is done: as §1, §2
Data set [2] has as its system HUVEC. As to the kind of experiment: XTT viability assay, HUVEC. The data set is classed as cell-based, human. Particulars: 24 h, 37 °C. How it is done: as §1
Cells were grown in 100 µL of culture medium for 24 h at 37 °C. The bacteriocins were separately added to the cells at concentrations of 25 µM, 50 µM and 100 µM. Sterile ultrapure water was used as control. After 24 h of incubation at 37 °C, the reaction mixture containing PMS (N-methyl-dibenzopyrazine-methylsulfate/phenazine methosulphate) and XTT solution, was added to each well and incubated for 4 h at 37 °C. Absorbance readings were recorded at 450 nm, using a microtiter plate reader. The percentage viability was calculated as AT/AC × 100; where AT is the absorbance of peptide-treated cells and AC is the absorbance of control (untreated cells).

Converted amounts (≈) assume the structure as drawn. Where a SMILES comes first, the peptide text is derived from it. Bridges are numbered along the chain shown (N, C = ends).

Turning to `CC(C)C[C@@H]1NC(=O)[C@H](Cc2c[nH]cn2)NC(=O)[C@H](CO)NC(=O)[C@H](C(C)C)NC(=O)[C@H](CO)NC(=O)[C@@H](NC(=O)[C@H](CO)NC(=O)[C@H](Cc2ccccc2)NC(=O)[C@H](C)NC(=O)[C@H](CCC(N)=O)NC(=O)CNC(=O)[C@H](Cc2c[nH]c3ccccc23)NC(=O)[C@H](CC(N)=O)NC(=O)[C@@H](NC(=O)[C@H](CO)NC(=O)[C@@H]2CSSC[C@H](NC(=O)[C@@H](NC(=O)[C@@H](NC(=O)CNC(=O)[C@H](CC(N)=O)NC(=O)CNC(=O)[C@H](Cc3ccc(O)cc3)NC(=O)[C@H](Cc3ccc(O)cc3)NC(=O)[C@@H](N)CCCCN)C(C)C)[C@@H](C)O)C(=O)NCC(=O)N[C@@H](CCCCN)C(=O)N[C@@H](Cc3c[nH]cn3)C(=O)N[C@@H](CO)C(=O)N2)C(C)C)CSSC[C@@H](C(=O)O)NC(=O)[C@H](CCCCN)NC(=O)CNC(=O)[C@H](Cc2c[nH]cn2)NC(=O)CNC(=O)[C@H](Cc2ccccc2)NC(=O)[C@H](CC(N)=O)NC(=O)[C@H](C)NC1=O` [plantaricin 423] (H-KYYGNGVTCGKHSCSVNWGQAFSCSVSHLANFGHGKC-OH; disulfide 9-14, 24-37; N-terminus and C-terminus assumed), the “cell viability (neutral red)” value in the data set with Caco-2 cells (Caco-2, 25 µM and 50 µM (up to 50 µM)) is “did not cause significant decreases”; in the data set on Caco-2 cells (Caco-2, 100 µM), “slight reduction”; in the data set on HUVEC [1] (25 µM and 50 µM (up to 50 µM)), “did not cause significant decreases”; with HUVEC [1] (100 µM), “slight reduction”. For the same molecule, the MIC in the data set with L. monocytogenes EGDe was found to be 12 µM (≈ 47.2 µg/mL). In addition, the “percentage attached and/or entered peptide” value in the data set on Caco-2 cell monolayer (Caco-2, labelled peptide 50 µM, total fluorescence minus migrated and residual peptide) is reported as 11%; with HUVEC monolayer (HUVEC, labelled peptide 50 µM, total fluorescence minus migrated and residual peptide), 0%. Besides, the migrated peptide in the data set with Caco-2 cell monolayer (Caco-2 monolayer on 8 µm pore insert, apical addition, NHS-fluorescein labelled peptide 50 µM, 37 °C, TEER above 300 Ω, read at 490 nm, % of no-monolayer control, triplicate) is listed as 85%; in the data set with HUVEC monolayer (HUVEC monolayer on 8 µm pore insert, apical addition, NHS-fluorescein labelled peptide 50 µM, 37 °C, TEER above 300 Ω, read at 490 nm, % of no-monolayer control, triplicate), 93%. In addition, the “cell viability (XTT)” value was “did not cause significant decreases” in the data set on HUVEC [2] (25 µM and 50 µM (up to 50 µM), absorbance 450 nm); “slight reduction” with HUVEC [2] (100 µM).
